Source: publication PMC4927141, “Structural Insights into a Novel Class of Aspartate Aminotransferase from Corynebacterium glutamicum” (PLoS ONE, 2016)

B1: Aspartate aminotransferase from Corynebacterium glutamicum ATCC13032 (enzyme, Corynebacterium glutamicum ATCC 13032)
chain: MSSVSLQDFDAERIGLFHEDIKRKFDELKSKNLKLDLTRGKPSSEQLDFADELLALPGKGDFKAADGTDVRNYGGLDGIVDIRQIWADLLGVPVEQVLAGDASSLNIMFDVISWSYIFGNNDSVQPWSKEETVKWICPVPGYDRHFSITERFGFEMISVPMNEDGPDMDAVEELVKNPQVKGMWVVPVFSNPTGFTVTEDVAKRLSAMETAAPDFRVVWDNAYAVHTLTDEFPEVIDIVGLGEAAGNPNRFWAFTSTSKITLAGAGVSFFLTSAENRKWYTGHAGIRGIGPNKVNQLAHARYFGDAEGVRAVMRKHAASLAPKFNKVLEILDSRLAEYGVAQWTVPAGGYFISLDVVPGTASRVAELAKEAGIALTGAGSSYPLRQDPENKNLRLAPSLPPVEELEVAMDGVATCVLLAAAEHYAN
notes: Aspartate aminotransferase (CgAspAT) of Corynebacterium glutamicum ATCC 13032, gene amplified from chromosomal DNA and cloned into pET30a; residues up to Asn426 are named in the structure; also called CgAspAT; AspAT; source: E. coli BL21(DE3)-T1R, purified (Ni-NTA, size-exclusion chromatography on Sephacryl S-300)

Legend:
CgAspAT [1] = biological target: T1, CgAspAT (Corynebacterium glutamicum, UniProt Q8NTR2); test: malate dehydrogenase-coupled NADH oxidation, […] nm; type: biochemical; details: 300 mM L-aspartate, 50 mM α-ketoglutarate, 100 mM Tris-HCl pH 8.0, 303 K, no added PLP
T1 construct: gene Cgl0240; pET30a, Ni-NTA purified, E. coli BL21(DE3)-T1R host; about 90 kDa homodimer; core domain Leu56-Gly304, C-terminal residue named Asn426

CgAspAT [2] = biological target: T1, CgAspAT; test: X-ray crystal structure, […] Å; type: binding; details: copurified, no PLP added; 28% PEG 3350, 200 mM ammonium citrate dibasic; near Lys259 (known aldimine lysine, covalent bond not stated for this structure)
[3] = biological target: the molecule itself; test: SEC; Sephacryl S-300 prep-grade column (320 ml), 40 mM Tris-HCl pH 8.0, 277 K; last step of the purification; dimer of the protein with itself

Molecule | malate dehydrogenase-coupled NADH oxidation, 340 nm (CgAspAT [1]) | other results
O=C(O)CCC(=O)C(=O)O [α-ketoglutarate] | CgAspAT enzymes catalyze L-asparate and α-ketoglutarate to L-glutamate and oxaloacetate | 
N[C@@H](CC(=O)O)C(=O)O [L-aspartate] | CgAspAT enzymes catalyze L-asparate and α-ketoglutarate to L-glutamate and oxaloacetate | 
Cc1ncc(COP(=O)(O)O)c(C=O)c1O [PLP] |  | X-ray crystal structure, 2.0 Å (CgAspAT [2]): we observed the electron density for the PLP cofactor in our structure without adding it
B1 |  | stoichiometry N [3]: 2
